Calls of active or inactive are those of the source. The calls are words filed in the database; no cut-off is given here.
Key:
[1] = tested on: Trypanosoma cruzi; test: Antitrypanosomal activity against epimastigotes of Trypanosoma cruzi Y after 5 days; type: functional, organism-based; conditions: 120 h
[2] = tested on: Trypanosoma cruzi; test: Antitrypanosomal activity against trypomastigotes of Trypanosoma cruzi Y infected in rhesus monkey LLC-MK2 cells assessed parasite viability after 24 hrs; type: functional, organism-based; conditions: LLC-MK2, 24 h
[3] = tested on: Trypanosoma cruzi; test: Antitrypanosomal activity against trypomastigotes of Trypanosoma cruzi Y infected in BALB/c mouse assessed as reduction of parasite level in blood at 100 mg/kg, po administered after 5 days of postinfection qd for 5 days; type: functional, organism-based; design: dose 100 mg/kg
[4] = Cytotoxicity against BALB/c mouse splenocytes after 24 hrs by [3H]-thymidine incorporation assay; type: cell-based, Splenocyte; conditions: read-out: LC50
[5] = molecular target: Cruzipain (Trypanosoma cruzi) (UniProt P25779); test: Inhibition of Trypanosoma cruzi cruzain using Z-Phe-Arg-aminomethylcoumarin as substrate at 100 uM after 10 mins
[6] = tested on: Trypanosoma cruzi; test: Antitrypanosomal activity against trypomastigotes of Trypanosoma cruzi Y infected in BALB/c mouse peritoneal exudate macrophages assessed as reduction of parasite level at 10 ug/ml after 4 days; type: functional, organism-based
[7] = molecular target: Cruzipain (Trypanosoma cruzi, UniProt P25779); test: Inhibition of Trypanosoma cruzi cruzain using Z-Phe-Arg-aminomethylcoumarin as substrate after 10 mins
Cruzipain, sequence (P25779 whole entry): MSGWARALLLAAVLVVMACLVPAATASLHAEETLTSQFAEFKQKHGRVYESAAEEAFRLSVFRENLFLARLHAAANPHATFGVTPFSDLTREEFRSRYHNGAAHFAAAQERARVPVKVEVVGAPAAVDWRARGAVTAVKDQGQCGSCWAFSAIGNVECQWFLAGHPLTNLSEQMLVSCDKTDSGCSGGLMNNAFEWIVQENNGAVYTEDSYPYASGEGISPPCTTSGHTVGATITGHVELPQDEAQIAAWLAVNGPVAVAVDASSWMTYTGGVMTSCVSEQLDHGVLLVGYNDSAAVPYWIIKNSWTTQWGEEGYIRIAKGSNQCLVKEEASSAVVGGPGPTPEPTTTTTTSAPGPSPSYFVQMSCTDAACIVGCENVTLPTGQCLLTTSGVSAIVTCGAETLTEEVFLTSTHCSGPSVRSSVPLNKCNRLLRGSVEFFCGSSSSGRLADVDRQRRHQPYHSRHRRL

Cruzipain (Trypanosoma cruzi), sequence (P25779 123-467 limits assumed): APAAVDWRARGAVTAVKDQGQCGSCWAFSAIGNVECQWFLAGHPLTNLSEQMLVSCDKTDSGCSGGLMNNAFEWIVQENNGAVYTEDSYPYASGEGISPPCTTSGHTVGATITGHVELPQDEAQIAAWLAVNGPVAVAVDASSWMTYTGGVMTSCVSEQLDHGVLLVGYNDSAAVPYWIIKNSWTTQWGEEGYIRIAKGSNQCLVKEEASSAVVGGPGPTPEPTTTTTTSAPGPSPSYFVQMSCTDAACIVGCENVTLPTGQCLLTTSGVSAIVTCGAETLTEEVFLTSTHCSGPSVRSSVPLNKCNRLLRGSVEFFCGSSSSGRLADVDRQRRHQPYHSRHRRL

Compound | IC50 [1] | IC50 [2] | Activity [3] | CC50 at 24 h [4] | inhibition [5] | Activity [6] | IC50 [7]
O=C(Cn1ccnc1[N+](=O)[O-])NCc1ccccc1 [BENZNIDAZOLE] | 7.5 µM | 11.3 µM | Active |  |  |  | 
COc1cc(/C=N/NC(=O)c2nc(-c3ccccc3)no2)ccc1O |  |  |  | > 100 µg/mL | 47% |  | 
COc1cc(/C=N/NC(=O)c2nc(-c3ccc(O)cc3)no2)ccc1O |  |  |  | > 100 µg/mL | 25% |  | 
COc1cc(/C=N/NC(=O)c2nc(-c3ccc(F)cc3)no2)ccc1O |  |  |  | > 100 µg/mL | 63% |  | 
O=C(N/N=C/c1ccc2c(c1)OCO2)c1nc(-c2ccc(Br)cc2)no1 | 14 µM | 13.4 µM |  | > 100 µg/mL | 95% | inactive | 0.03 µM
O=C(N/N=C/c1ccc2c(c1)OCO2)c1nc(-c2ccccc2)no1 |  |  |  | > 100 µg/mL | 32% |  | 
Cc1ccc(-c2noc(C(=O)N/N=C/c3ccc4c(c3)OCO4)n2)cc1 |  |  |  | > 100 µg/mL | 49% |  | 
COc1ccc(-c2noc(C(=O)N/N=C/c3ccc(O)c(OC)c3)n2)cc1 |  |  |  | > 100 µg/mL | 35% |  | 
COc1cc(/C=N/NC(=O)c2nc(-c3ccc(Cl)cc3)no2)ccc1O |  |  |  | > 100 µg/mL | 92% |  | 0.04 µM
